Laboratory results published in the Bradley open melting point set (2014).
Where “and” joins values, the source holds several entries; their conditions need not be identical. Equal values may be shown once.

For `Oc1c(Cl)cccc1Cl` [2,6-dichlorophenol], the melting point was 67 °C and 68.5 °C and 65 °C (2×).

Compared with `OC1CCCCCCC1` [cyclooctanol], `C1CCC(C2CCCCC2)CC1` [bicyclohexyl] is lower in melting point: 15 °C for the first, 4 °C for the second.

First: CC12CCC(C(O)=C/C1=N\Nc1ccccc1)C2(C)C (stereo not given)
Second: CC(C(O)c1ccc(O)cc1)N1CCC(Cc2ccccc2)CC1 (stereo not given) [ifenprodil]
The melting point of the first is higher: 182 °C for the first, 114 °C for the second.

First: c1ccc(C(c2ccccc2)c2ccccc2)cc1 [1,1',1''-Methanetriyltribenzene]
Second: C(#Cc1ccc2ccccc2c1)c1ccccc1 [2-(phenylethynyl)naphthalene]
The melting point of the first is lower: 94 °C for the first, 117 °C for the second.

Compared with `CC(C)NCC(O)COc1cccc2ccccc12` (stereo not given) [Propranolol], `CC(=O)c1ccc2ccccc2c1` [2-Acetylnaphthalene] is lower in melting point: 164 °C for the first, 55 °C for the second.

First: Clc1ccc(C(Cn2ccnc2)OCc2csc3c(Cl)cccc23)c(Cl)c1 (stereo not given) [sertaconazole]
Second: N#CCc1csc2ccc(Cl)cc12 [5-chlorobenzo[b]thiophene-3-acetonitrile]
The melting point of the first is higher: 146 °C for the first, 134 °C for the second.

First: ClC(Cl)c1ccc(C(Cl)Cl)cc1 [1,4-bis(dichloromethyl)benzene]
Second: O=C(N[C@H](CO)[C@H](O)c1ccc([N+](=O)[O-])cc1)C(Cl)Cl [chloramphenicol]
The melting point of the first is lower: 93 °C for the first, 151 °C for the second.

Compared with `CCOCCOC(C)=O` [2-ethoxyethyl_acetate], `CC(=O)OCCC(C)C` [isoamyl_acetate] is lower in melting point: -61 °C for the first, -78 °C for the second.

Going from `O=C2c1ccccc1S(=O)(=O)N(C)C/2=C(O)Nc3ccccn3` [Piroxicam] to `CCn1c2ccccc2c2ccccc21` [9-Ethyl-9H-carbazole], the melting point falls from 199 °C to 69 °C.

First: Nc1ccc(C(=O)O)cc1 [p-aminobenzoic_acid]
Second: O=C(O)c1ccc(Br)cc1 [p-bromobenzoic_acid]
The melting point of the first is lower: 189 °C for the first, 253 °C for the second.

Going from `O=C(O)[C@@H]1[C@H](C(=O)O)[C@H]2C=C[C@@H]1C2` [(1R,2R,3S,4S)-Bicyclo[2.2.1]hept-5-ene-2,3-dicarboxylic acid] to `CC(C)C(C(=O)O)C(=O)O` [isopropylmalonic acid], the melting point falls from 150 °C to 89 °C.

First: O=C(O)c1ccc([N+](=O)[O-])c(O)c1 [3-hydroxy-4-nitrobenzoic acid]
Second: O=[N+]([O-])c1ccc(F)c([N+](=O)[O-])c1 [1-Fluoro-2,4-dinitrobenzene]
The melting point of the first is higher: 234 °C for the first, 27 °C for the second.

Compared with `CC(CCc1oc2ccc([N+](=O)[O-])cc2c1-c1ccc(C)o1)=NO`, `Nc1cccc([N+](=O)[O-])c1` [3-nitroaniline] is lower in melting point: 161 °C for the first, 113 °C for the second.

Compared with `CCc1ccc(C)nc1` [5-ethyl-2-methylpyridine], `Cc1ccccn1` [2-picoline] is higher in melting point: -71 °C for the first, -70 °C for the second.

First: CCCCNc1cc(C(=O)O)cc(S(N)(=O)=O)c1Oc1ccccc1 [bumetanide]
Second: Cc1ccc(S(=O)(=O)OI(O)c2ccccc2)cc1 [hydroxy(tosyloxy)iodobenzene]
The melting point of the first is higher: 230 °C for the first, 134 °C for the second.

Going from `COC(=O)c1ccc(C#N)cc1` [methyl_4-cyanobenzoate] to `CC(=O)Nc1ccc(O)cc1` [4-acetylaminophenol], the melting point rises from 62 °C to 170 °C.

First: CCCCCCCCCCC [N-undecane]
Second: CCCCCCCCCC#N [decanonitrile]
The melting point of the first is lower: -26 °C for the first, -15 °C for the second.

Going from `ClC(Cl)C(Cl)Cl` [1,1,2,2-Tetrachloroethane] to `COc1cc(Cl)c(Cl)c(Cl)c1Cl` [1-Methoxy-2,3,4,5-tetrachlorobenzene], the melting point rises from -43 °C to 88 °C.

First: C=C(C)CC1(CC)C(=O)NC(=S)NC1=O [methallatal]
Second: CCC1(CC)C(=O)NC(=O)NC1=O [Barbital]
The melting point of the first is lower: 160 °C for the first, 190 °C for the second.

First: O=C1Cc2ccccc2C(=O)O1 [homophthalic anhydride]
Second: Nc1ccccc1F [2-Fluoroaniline]
The melting point of the first is higher: 142 °C for the first, -34.6 °C for the second.

Compared with `S=C=S` [carbon disulfide], `CCN=C=S` [ethyl isothiocyanate] is higher in melting point: -112 °C for the first, -6 °C for the second.

Going from `COc1ccc2c(c1)[C@@]13CCCC[C@@H]1[C@@H](C2)N(C)CC3` [dextromorphan] to `O=c1ncnc2n(C3CCCCC3)[nH]cc1-2` [1-cyclohexyl-1,2-dihydro-4H-pyrazolo[3,4-d]pyrimidin-4-one], the melting point rises from 110 °C to 252 °C.

First: Clc1cc(Cl)c(-c2ccccc2)cc1Cl [2,4,5-trichlorobiphenyl]
Second: Nc1cccc(C(=O)c2cccc(N)c2)c1 [3,3'-diaminobenzophenone]
The melting point of the first is lower: 78 °C for the first, 150 °C for the second.

Going from `CCOC(=O)c1c(O)cc(C)nc1O` [ethyl 2,4-dihydroxy-6-methylnicotinate] to `CCc1cccc(CC)c1NC(=O)CCl` [2-chloro-2',6'-diethylacetanilide], the melting point falls from 212 °C to 130 °C.

Compared with `C/C(OC/C(=N/NC(N)=O)c1ccccc1)=C(\C#N)c1ccccc1`, `Oc1ccc2ccccc2c1-c1c(O)ccc2ccccc12` [1,1'-bi(2-naphthol)] is higher in melting point: 157 °C for the first, 217 °C for the second.

Going from `CC[C@H]1OC(=O)[C@H](C)[C@@H](O[C@H]2C[C@@](C)(OC)[C@@H](O)[C@H](C)O2)C(C)[C@@H](O[C@@H]2O[C@H](C)C[C@H](N(C)C)[C@H]2O)[C@](C)(O)C[C@@H](C)CN(C)[C@H](C)[C@@H](O)[C@]1(C)O` (stereo not given in full) [Azithromycin] to `COc1cc([C@@H]2c3cc4c(cc3[C@@H](O[C@@H]3O[C@@H]5CO[C@@H](C)O[C@H]5[C@H](O)[C@H]3O)[C@H]3COC(=O)[C@H]23)OCO4)cc(OC)c1O` [Etoposide], the melting point rises from 114 °C to 244 °C.

Going from `Cn1c(=O)c2[nH]cnc2n(C)c1=O` [theophylline] to `CCCCCCn1c(=O)c2c(ncn2C)n(C)c1=O` [1-n-hexyltheobromine], the melting point falls from 270 °C to 81 °C.

First: CCCCCl [1-chlorobutane]
Second: ClCCCCCl [1,4-dichlorobutane]
The melting point of the first is lower: -123 °C for the first, -37 °C for the second.

First: CSc1ccc(Br)cc1 [4-bromothioanisole]
Second: NCCc1ccc(O)cc1 [tyramine]
The melting point of the first is lower: 39 °C for the first, 164 °C for the second.

Going from `C#CC1(O)CCC2C3CC=C4C=C(C(C)(C)C(=O)O)CCC4(C)C3CCC21C` (stereo not given) to `C[C@H]1C[C@H]2[C@@H]3CCC4=CC(=O)C=C[C@]4(C)[C@@]3(Cl)[C@@H](O)C[C@]2(C)[C@@]1(O)C(=O)CO` [Beclomethasone], the melting point falls from 259 °C to 118 °C.

Going from `Nc1ccc(-c2cccs2)cc1` [4-(2-thienyl)aniline] to `N#CCc1cccc(C#N)c1` [m-cyano_phenylacetonitrile], the melting point rises from 76 °C to 87 °C.

First: Nc1nc2c(ncn2COCCO)c(=O)[nH]1 [acyclovir]
Second: COc1ccc(CCN2CCC(Nc3nc4ccccc4n3Cc3ccc(F)cc3)CC2)cc1 [Astemizole]
The melting point of the first is higher: 265 °C for the first, 149 °C for the second.

First: CCC(C)(CO)CO [2-ethyl-2-methyl-1,3-propanediol]
Second: CCCCCCCCC(=O)OCC [ethyl nonanoate]
The melting point of the first is higher: 44 °C for the first, -44 °C for the second.

First: O=C(O)C1CC2=C3C=CCC=C3N=C2CN1 (stereo not drawn) [2,3,4,9-tetrahydro-1H-beta-carboline-3-carboxylic acid]
Second: NNC(=O)c1ccncc1 [Isonicotinohydrazide]
The melting point of the first is higher: 296 °C for the first, 171 °C for the second.

Compared with `O=C(O)CCCCCCCBr` [8-bromooctanoic acid], `O=C[C@H](O)[C@H](O)[C@@H](O)CO` [L-lyxose] is higher in melting point: 39 °C for the first, 110 °C for the second.

With `CP(C)(C)=S` [trimethylphosphine sulfide] the melting point was 156 °C.
